Series [1] can be described thus: Resistance index, ratio of mitoxantrone IC50 for human H460/MX20 cells to mitoxantrone IC50 for human H460 cells at 10 uM (reference value: 28.66).
Series [2] in a line: Cytotoxicity against human NCI-H460/MX20 cells after 72 hrs by MTT assay. It counts as cell-based. The settings on record: NCI-H460/MX20, 72 h. (Tetrazolium dyes change colour on reduction, which living cells bring about.)
Series [3] has as its target T1, Broad substrate specificity ATP-binding cassette transporter ABCG2 (Homo sapiens, UniProt Q9UNQ0).
T1 sequence (Q9UNQ0 whole entry): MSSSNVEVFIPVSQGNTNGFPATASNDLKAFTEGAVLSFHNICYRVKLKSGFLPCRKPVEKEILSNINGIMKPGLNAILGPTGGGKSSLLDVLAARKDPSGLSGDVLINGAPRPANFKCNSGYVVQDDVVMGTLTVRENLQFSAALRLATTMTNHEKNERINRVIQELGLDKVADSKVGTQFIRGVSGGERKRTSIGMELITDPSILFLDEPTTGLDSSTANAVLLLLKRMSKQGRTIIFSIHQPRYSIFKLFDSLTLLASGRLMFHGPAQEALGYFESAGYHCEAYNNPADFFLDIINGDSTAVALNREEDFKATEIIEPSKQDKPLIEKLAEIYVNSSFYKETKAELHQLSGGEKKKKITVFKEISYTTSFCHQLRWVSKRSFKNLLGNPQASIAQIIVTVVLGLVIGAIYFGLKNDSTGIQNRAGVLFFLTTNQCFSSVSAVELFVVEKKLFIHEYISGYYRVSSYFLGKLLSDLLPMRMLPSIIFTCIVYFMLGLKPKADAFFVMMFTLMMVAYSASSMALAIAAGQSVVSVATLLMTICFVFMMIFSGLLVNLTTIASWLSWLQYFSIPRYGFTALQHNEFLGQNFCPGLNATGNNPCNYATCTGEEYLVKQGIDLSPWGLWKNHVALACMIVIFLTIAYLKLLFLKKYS
Put plainly: Inhibition of BCRP (unknown origin) expressed in MCF-7 MX cells assessed as reduction in Hoechst 33342 accumulation preincubated for 30 mins followed by Hoechst 33342 addition measured every 60 secs up to 120 mins by fluorescence assay. It counts as cell-based.

A short description of series [4]: Resistance index, ratio of mitoxantrone IC50 for human H460/MX20 cells to mitoxantrone IC50 for human H460 cells at 3 uM (reference value: 28.66).
The nature of series [5]: Resistance index, ratio of mitoxantrone IC50 for human H460/MX20 cells to mitoxantrone IC50 for human H460 cells at 1 uM (reference value: 28.66).
Series [6] has as its system NCI-H460. Briefly: Cytotoxicity against human H460 cells after 72 hrs by MTT assay. The class given is cell-based. The settings on record: NCI-H460, 72 h.
For series [7], the target named is T1, Broad substrate specificity ATP-binding cassette transporter ABCG2. Briefly: Inhibition of ABCG2 (unknown origin) expressed in high five insect cell membrane vesicles assessed as reduction in BCRP ATPase activity up to 3 uM preincubated for 3 mins followed by ATP addition measured for 20 mins.
Series [8] in a line: Inhibition of ABCG2 in human H460/MX20 cells assessed as potentiation of mitoxantrone induced antiproliferative activity by measuring mitoxantrone IC50 at 10 uM preincubated for 2 hrs followed by mitoxantrone addition measured after 72 hrs by MTT assay (reference value: 6.161 +/- 0.172 microM).
Series [9] deals with T2, ABCG2 (BCRP) (Homo sapiens, UniProt Q9UNQ0).
T2 sequence (Q9UNQ0 whole entry): T1 sequence (Q9UNQ0 whole entry)
Briefly: Activation of ABCG2 (unknown origin) expressed in high five insect cell membrane vesicles assessed as induction of basal BCRP ATPase activity at 10 uM preincubated for 3 mins followed by ATP addition measured for 20 mins relative to control. To be noted: High Five insect cell membrane vesicles expressing ABCG2, read-out: FC.

Series [10] addresses T1, Broad substrate specificity ATP-binding cassette transporter ABCG2. Put plainly: Inhibition of ABCG2 (unknown origin) expressed in high five insect cell membrane vesicles assessed as reduction in BCRP ATPase activity at 3 to 30 uM preincubated for 3 mins followed by ATP addition measured for 20 mins.
The nature of series [11]: Inhibition of ABCG2 in human H460/MX20 cells assessed as potentiation of mitoxantrone induced antiproliferative activity by measuring mitoxantrone IC50 at 1 uM preincubated for 2 hrs followed by mitoxantrone addition measured after 72 hrs by MTT assay (reference value: 6.161 +/- 0.172 microM).
For series [12], the target named is T1, Broad substrate specificity ATP-binding cassette transporter ABCG2. Put plainly: Inhibition of ABCG2 (unknown origin) expressed in high five insect cell membrane vesicles assessed as reduction in BCRP ATPase activity preincubated for 3 mins followed by ATP addition measured for 20 mins.
Series [13] shares this target. Briefly: Inhibition of ABCG2 (unknown origin) expressed in high five insect cell membrane vesicles assessed as reduction in basal BCRP ATPase activity up to 30 uM preincubated for 3 mins followed by ATP addition measured for 20 mins relative to control.

In general, IC50 refers to the concentration that inhibits the measured activity by half.

Take `CCCc1ccc(NC(=O)c2ccccc2NC(=O)c2ccc([N+](=O)[O-])cc2)cc1`: the “Ratio IC50” value in series [1] amounted to 2.76; in [4], 3.64; in series [5], 3.87. For the same compound, the IC50 in series [2] was more than 100 µM; in series [3] it was 0.94 µM; in series [6], more than 100 µM.

As for `CCCc1ccc(NC(=O)c2ccccc2NC(=O)Nc2ccc([N+](=O)[O-])cc2)cc1`, the “inhibition (INH)” value is “Not Active” in series [7] and “Active” in series [10]. In addition, the IC50 in series [8] was 0.325 µM; in [2], more than 100 µM; in series [6], more than 100 µM. Also, the figures for the “Ratio IC50” value in series [1], in [4] and in [5] were 1.51, 2.24 and 2.89, respectively. The fold induction at 20 min, 10 µM in series [9] is 1.47.

Regarding `COc1cccc(-n2nnc(-c3ccccc3NC(=O)Nc3ccc([N+](=O)[O-])cc3)n2)c1`, the IC50 in [11] is 0.832 µM; in [2] it was more than 100 µM; in [6], more than 100 µM. Besides, the entries for the “Ratio IC50” value in series [1], in series [4] and in [5] were 1.87, 2.53 and 3.87, respectively. For the same compound, the fold induction at 20 min, 10 µM in series [9] was determined as 1.94. In series [12], the “inhibition (INH)” value is “Dose-dependent effect”.

`COc1cccc(-n2nnc(-c3ccccc3NC(=O)c3ccc(N)cc3)n2)c1`: the results for the “Ratio IC50” value in series [1], in series [4] and in [5] were 1.39, 2.28 and 2.55, respectively. The IC50 in series [2] and in series [6] was more than 100 µM throughout. In addition, in series [12], the “inhibition (INH)” value is “Dose-dependent effect”. The “fold change (FC)” value in series [13] is on record as 0.52.

Take `CCCc1ccc(NC(=O)c2ccccc2NC(=O)Nc2cccc([N+](=O)[O-])c2)cc1`: the IC50 in [8] is 0.348 µM; in series [2] it was more than 100 µM; in series [6] it was more than 100 µM. The “Ratio IC50” value in [1] came to 1.62; in series [4], 2.33; in series [5], 3.03. Besides, in series [9], the fold induction at 20 min, 10 µM is 3.55. Besides, the “inhibition (INH)” value in series [12] is “Dose-dependent effect”.

The record behind these values is ChEMBL document CHEMBL4043226, “Design, synthesis and biological evaluation of benzamide and phenyltetrazole derivatives with amide and urea linkers as BCRP inhibitors” (Bioorg Med Chem Lett, 2017).
